Laboratory results: patent US9732075B2, “Benzimidazole-proline derivatives” (IDORSIA PHARMACEUTICALS LTD, priority 2012, dated 2017)

How the values were obtained:
human orexin-1 receptor = human orexin-1 receptor (Homo sapiens (Human), UniProt O43613); test: In vitro assay: intracellular calcium measurements (FLIPR), antagonistic activity; format: cell-based; details: CHO cells expressing human orexin-1 receptor, orexin-A agonist, geometric mean, read-out: IC50 Ox1
How it was run: (§1)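 IC50s are geometric means, possibly reference-normalized, from FLIPR calcium peaks in CHO cells bearing human orexin-1 or orexin-2 receptor. Fluo-4 AM/probenecid-loaded cells received antagonist for 120 min before challenge with orexin-A (final 3 nM, ~EC70), with responses compared against vehicle controls.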

human orexin-2 receptor = human orexin-2 receptor (Homo sapiens (Human), UniProt O43614); test: as above; format: cell-based; details: CHO cells expressing human orexin-2 receptor, orexin-A agonist, geometric mean, read-out: IC50 Ox2
How it was run: as §1

Chain of human orexin-1 receptor (O43613 whole entry): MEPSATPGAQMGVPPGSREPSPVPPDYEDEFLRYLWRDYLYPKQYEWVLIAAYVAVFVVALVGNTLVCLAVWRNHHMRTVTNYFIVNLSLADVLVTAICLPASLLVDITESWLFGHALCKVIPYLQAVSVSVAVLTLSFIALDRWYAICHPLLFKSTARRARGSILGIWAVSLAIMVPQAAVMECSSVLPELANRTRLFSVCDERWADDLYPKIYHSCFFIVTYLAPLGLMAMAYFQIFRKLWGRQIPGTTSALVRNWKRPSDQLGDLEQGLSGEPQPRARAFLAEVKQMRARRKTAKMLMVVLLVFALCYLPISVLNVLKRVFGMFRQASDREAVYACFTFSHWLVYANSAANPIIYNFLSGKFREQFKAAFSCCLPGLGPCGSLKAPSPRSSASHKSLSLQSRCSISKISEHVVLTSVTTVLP
Chain of human orexin-2 receptor (O43614 whole entry): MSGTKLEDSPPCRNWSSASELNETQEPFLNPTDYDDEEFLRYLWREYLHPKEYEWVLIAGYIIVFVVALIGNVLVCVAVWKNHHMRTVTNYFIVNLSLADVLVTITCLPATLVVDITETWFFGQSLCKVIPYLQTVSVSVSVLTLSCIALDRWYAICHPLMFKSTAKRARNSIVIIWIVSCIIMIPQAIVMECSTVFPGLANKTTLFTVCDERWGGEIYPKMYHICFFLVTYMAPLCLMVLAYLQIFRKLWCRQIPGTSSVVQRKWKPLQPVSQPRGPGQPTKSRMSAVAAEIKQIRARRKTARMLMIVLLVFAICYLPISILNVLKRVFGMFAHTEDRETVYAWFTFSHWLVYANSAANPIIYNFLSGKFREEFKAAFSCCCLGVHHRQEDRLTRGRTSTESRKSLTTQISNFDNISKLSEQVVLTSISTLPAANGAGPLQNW

Work on `COc1ccc(-c2nc(C(=O)N3CCC[C@@]3(C)c3nc4cc(Cl)c(C(F)(F)F)cc4[nH]3)c(-c3ccc(F)cc3)s2)cc1` [Ex. 5.293] yielded an IC50 (human orexin-1 receptor) of 77 nM and an IC50 (human orexin-2 receptor) of 4040 nM.
`C=C1C[C@@H](c2nc3cc(OC)ccc3[nH]2)N(C(=O)c2ccccc2-c2ccc(C)cc2)C1` [Ex. 6.15] was tested, and the IC50 (human orexin-1 receptor) was 298 nM and the IC50 (human orexin-2 receptor) was 37 nM.
`CSc1cccc2nc([C@@H]3CCCN3C(=O)c3ccccc3-c3ccc(C)c(C)c3)[nH]c12` [Ex. 1.75] gave an IC50 (human orexin-1 receptor) of 5 nM and an IC50 (human orexin-2 receptor) of 9 nM.
In the case of `C[C@@]1(c2nc3ccc(C(F)(F)F)cc3[nH]2)CCCN1C(=O)c1nc(-c2ccccc2F)sc1-c1ccc(F)cc1` [Ex. 5.294], the IC50 (human orexin-1 receptor) is reported as 39 nM and the IC50 (human orexin-2 receptor) is reported as 714 nM.
With `Cc1ccc(-c2ccccc2C(=O)N2CCC[C@@]2(C)c2nc3cc(C)c(C)cc3[nH]2)cc1` [Ex. 5.107] the IC50 (human orexin-1 receptor) was 58 nM and the IC50 (human orexin-2 receptor) was 53 nM.
For `COc1ccc(-c2cccc(C(F)(F)F)c2)c(C(=O)N2CCC[C@@]2(C)c2nc3ccc(Cl)c(C)c3[nH]2)c1F` [Ex. 5.303], the IC50 (human orexin-1 receptor) was 29 nM and the IC50 (human orexin-2 receptor) was 21 nM.
Work on `Cc1cccc(C(=O)N2CCC[C@@]2(C)c2nc3cc(C(F)(F)F)ccc3[nH]2)c1-n1nccn1` [Ex. 5.179] yielded an IC50 (human orexin-1 receptor) of 368 nM and an IC50 (human orexin-2 receptor) of 1120 nM.
`COc1cc2nc([C@]3(C)CCCN3C(=O)c3c(F)cccc3-n3nccn3)[nH]c2cc1OC` [Ex. 5.66] was tested, and the IC50 (human orexin-1 receptor) was 872 nM and the IC50 (human orexin-2 receptor) was 458 nM.
For `Cc1nc(C(=O)N2CCC[C@@]2(C)c2nc3c(F)c(F)ccc3[nH]2)c(-c2cccc(Cl)c2)s1` [Ex. 5.207], the IC50 (human orexin-1 receptor) was 15 nM and the IC50 (human orexin-2 receptor) was 78 nM.
`Cc1nc(C(=O)N2CCCC2c2nc3cc(Br)cc(C)c3[nH]2)c(-c2cccc(Cl)c2)s1` (stereo not drawn) [Ex. 1.107] gave an IC50 (human orexin-1 receptor) of 28 nM and an IC50 (human orexin-2 receptor) of 58 nM.
In the case of `Cc1c(Cl)ccc2[nH]c([C@@H]3[C@@H](C)CCN3C(=O)c3c(F)cccc3-c3ccccc3)nc12` [Ex. 4.169], the IC50 (human orexin-1 receptor) is reported as 4 nM and the IC50 (human orexin-2 receptor) is reported as 892 nM.
Work on `Cc1ccc(-n2nccn2)c(C(=O)N2CCC[C@@]2(C)c2nc3c4c(ccc3[nH]2)OCCO4)c1` [Ex. 5.33] yielded an IC50 (human orexin-1 receptor) of 25 nM and an IC50 (human orexin-2 receptor) of 29 nM.
`COc1cccc(-c2sc(C)nc2C(=O)N2CCC[C@@]2(C)c2nc3c(C)c(C)c(Br)cc3[nH]2)c1` [Ex. 5.275] gave an IC50 (human orexin-1 receptor) of 5 nM and an IC50 (human orexin-2 receptor) of 6 nM.
`COc1cc2nc([C@]3(C)CCCN3C(=O)c3cc(C)ccc3-n3cccn3)[nH]c2cc1OC` [Ex. 5.82] was tested, and the IC50 (human orexin-1 receptor) was 27 nM and the IC50 (human orexin-2 receptor) was 15 nM.
`Cc1nc(C(=O)N2CC[C@H](C)[C@H]2c2nc3cc(C(F)(F)F)ccc3[nH]2)c(-c2ccccc2Cl)s1` [Ex. 4.146] was tested, and the IC50 (human orexin-1 receptor) was 6 nM and the IC50 (human orexin-2 receptor) was 2110 nM.
`C=C1CN(C(=O)c2nc(C)sc2-c2ccc(OC)cc2)C(C)(c2nc3cc(OC)ccc3[nH]2)C1` (stereo not drawn) [Ex. 6.147] gave an IC50 (human orexin-1 receptor) of 13 nM and an IC50 (human orexin-2 receptor) of 34 nM.
Molecule `COc1cccc(-c2sc(C)nc2C(=O)N2CC[C@H](C)[C@H]2c2nc3c(Cl)cccc3[nH]2)c1` [Ex. 4.121] has an IC50 (human orexin-1 receptor) of 6 nM and an IC50 (human orexin-2 receptor) of 475 nM.
`C[C@@]1(c2nc3cc(C(F)(F)F)ccc3[nH]2)CCCN1C(=O)c1cc(Br)ccc1-c1ccccc1` [Ex. 5.262] gave an IC50 (human orexin-1 receptor) of 113 nM and an IC50 (human orexin-2 receptor) of 1 nM.
Molecule `Cc1cccc(-c2sc(C)nc2C(=O)N2CC[C@H](C)[C@H]2c2nc3c(C(F)(F)F)cccc3[nH]2)c1` [Ex. 4.158] has an IC50 (human orexin-1 receptor) of 2 nM and an IC50 (human orexin-2 receptor) of 308 nM.
With `Cc1nc(C(=O)N2CCCC2c2nc3c(C)c(C)ccc3[nH]2)c(-c2ccccc2)s1` (stereo not drawn) [Ex. 1.139] the IC50 (human orexin-1 receptor) was 103 nM and the IC50 (human orexin-2 receptor) was 26 nM.
`Cc1c(Cl)ccc2[nH]c([C@@H]3[C@@H](C)CCN3C(=O)c3cc(C#N)ccc3-c3ccccc3)nc12` [Ex. 4.166] showed an IC50 (human orexin-1 receptor) of 2 nM and an IC50 (human orexin-2 receptor) of 568 nM.
With `C=C1C[C@@H](c2nc3cc(OC)ccc3[nH]2)N(C(=O)c2nc(C3CC3)sc2-c2ccc(C)cc2)C1` [Ex. 6.35] the IC50 (human orexin-1 receptor) was 146 nM and the IC50 (human orexin-2 receptor) was 80 nM.
`Cc1c(Cl)ccc2[nH]c([C@]3(C)CCCN3C(=O)c3cc(OC(F)(F)F)ccc3-n3nccn3)nc12` [Ex. 5.35] gave an IC50 (human orexin-1 receptor) of 102 nM and an IC50 (human orexin-2 receptor) of 99 nM.
For `COc1ccc2nc([C@@H]3CCCN3C(=O)c3ccc(C)cc3-n3nccn3)[nH]c2c1` [Ex. 1.160], the IC50 (human orexin-1 receptor) was 245 nM and the IC50 (human orexin-2 receptor) was 5 nM.
